Reference: PubChem BioAssay (NCI)
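Values below derive from 48-hour exposures of cells grown in 96-well plates, with endpoints linearly interpolated between the two concentrations bracketing the appropriate inhibition level. Here, GI50 denotes the concentration required for 50% inhibition of growth. TGI is the concentration that stops growth completely.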

Key:
Assay in all cases: NCI anticancer screen, dose series, 48 h
[1] = tested on: NCI-H460 lung
[2] = tested on: MCF7 breast
[3] = tested on: UO-31 renal
[4] = tested on: OVCAR-8 ovarian
[5] = tested on: HCC-2998 colon
[6] = tested on: CAKI-1 renal
[7] = tested on: SNB-75 CNS
[8] = tested on: A549 NSCLC
[9] = tested on: PC-3 prostate
[10] = tested on: U251 CNS
[11] = tested on: SW-620 colon
[12] = tested on: SK-MEL-28 melanoma
[13] = tested on: HOP-62 NSCLC
[14] = tested on: OVCAR-4 ovarian
[15] = tested on: BT-549 breast
[16] = tested on: UACC-257 melanoma
[17] = tested on: NCI/ADR-RES ovarian
[18] = tested on: RPMI-8226 leukemia
[19] = tested on: 786-0 renal
[20] = tested on: CCRF-CEM leukemia
[21] = tested on: SK-OV-3 ovarian
[22] = tested on: DU-145 prostate
[23] = tested on: HT29 colon
[24] = tested on: HOP-92 NSCLC
[25] = tested on: HS 578T breast
[26] = tested on: SR leukemia
[27] = tested on: SK-MEL-2 melanoma
[28] = tested on: LOX IMVI melanoma
[29] = tested on: NCI-H522 lung
[30] = tested on: OVCAR-5 ovarian
[31] = tested on: SF-268 CNS
[32] = tested on: NCI-H23 lung
[33] = tested on: NCI-H226 lung
[34] = tested on: EKVX NSCLC
[35] = tested on: MDA-MB-231 breast
[36] = tested on: HCT-15 colon
[37] = tested on: COLO 205 colon
[38] = tested on: K-562 leukemia
[39] = tested on: HL-60(TB) leukemia
[40] = tested on: TK-10 renal
[41] = tested on: MDA-MB-435
[42] = tested on: MOLT-4 leukemia
[43] = tested on: KM12 colon
[44] = tested on: SF-295 CNS
[45] = tested on: SN12C renal
[46] = tested on: ACHN renal
[47] = tested on: A498 renal
[48] = tested on: SK-MEL-5 melanoma
[49] = tested on: SF-539 CNS
[50] = tested on: HCT-116 colon
[51] = tested on: IGROV1 ovarian
[52] = tested on: RXF 393 renal
[53] = tested on: SNB-19 CNS
[54] = tested on: UACC-62 melanoma
[55] = tested on: M14 melanoma
[56] = tested on: OVCAR-3 ovarian

CCN1C(=O)N(CC)C2SC(N/N=C/c3ccccc3)=NC21 (centres undefined) showed a GI50 [1] of 367 nM, a TGI [1] greater than 34200 nM and a GI50 [2] of 301 nM. It also gave a TGI [2] greater than 100000 nM, a GI50 [3] of 718 nM and a TGI [3] greater than 100000 nM. For the same compound, the GI50 [4] was 473 nM, the TGI [4] was greater than 100000 nM and the GI50 [5] was 564 nM. It also gave a TGI [5] of 34000 nM, a GI50 [6] of 403 nM and a TGI [6] greater than 100000 nM. The GI50 [7] was 173 nM, the GI50 [8] was 606 nM and the TGI [8] was greater than 100000 nM. For the same compound, the GI50 [9] was 359 nM, the TGI [9] was greater than 100000 nM and the GI50 [10] was 343 nM. The TGI [10] was greater than 100000 nM, the GI50 [11] was 394 nM and the TGI [11] was greater than 100000 nM. For the same compound, the GI50 [12] was 1680 nM, the TGI [12] was greater than 100000 nM and the GI50 [13] was 567 nM. It also gave a TGI [13] greater than 100000 nM, a GI50 [14] greater than 88900 nM and a TGI [14] greater than 100000 nM. It also gave a GI50 [15] of 464 nM, a TGI [15] of 2300 nM and a TGI [16] greater than 100000 nM. It also gave a GI50 [17] of 327 nM, a TGI [17] greater than 36100 nM and a GI50 [18] of 381 nM. The TGI [18] was greater than 100000 nM, the GI50 [19] was 583 nM and the TGI [19] was 44500 nM. It also gave a GI50 [20] of 342 nM, a TGI [20] greater than 100000 nM and a GI50 [21] of 614 nM. It also gave a TGI [21] greater than 100000 nM, a GI50 [22] of 441 nM and a TGI [22] greater than 100000 nM. For the same compound, the GI50 [23] was 320 nM, the TGI [23] was greater than 100000 nM and the GI50 [24] was 2780 nM. The TGI [24] was greater than 30300 nM, the GI50 [25] was 312 nM and the TGI [25] was greater than 100000 nM. The GI50 [26] was 194 nM, the TGI [26] was greater than 100000 nM and the GI50 [27] was 317 nM. It also gave a TGI [27] greater than 100000 nM, a GI50 [28] of 572 nM and a TGI [28] greater than 100000 nM. The GI50 [29] was 210 nM, the TGI [29] was 735 nM and the GI50 [30] was 521 nM. It also gave a TGI [30] greater than 100000 nM, a GI50 [31] of 3410 nM and a TGI [31] greater than 100000 nM. The GI50 [32] was 474 nM, the TGI [32] was greater than 100000 nM and the GI50 [33] was 754 nM. It also gave a TGI [33] greater than 100000 nM, a GI50 [34] of 583 nM and a TGI [34] greater than 100000 nM. The GI50 [35] was 656 nM, the TGI [35] was greater than 100000 nM and the GI50 [36] was 349 nM. It also gave a TGI [36] greater than 100000 nM, a GI50 [37] of 300 nM and a TGI [37] of 945 nM. For the same compound, the GI50 [38] was 215 nM, the TGI [38] was greater than 100000 nM and the GI50 [39] was 257 nM. For the same compound, the TGI [39] was 932 nM, the TGI [40] was greater than 100000 nM and the GI50 [41] was 84.8 nM. For the same compound, the TGI [41] was 317 nM, the GI50 [42] was 502 nM and the TGI [42] was greater than 100000 nM. For the same compound, the GI50 [43] was 148 nM, the TGI [43] was greater than 100000 nM and the GI50 [44] was 282 nM. It also gave a TGI [44] greater than 71600 nM, a GI50 [45] of 557 nM and a TGI [45] greater than 100000 nM. For the same compound, the GI50 [46] was 943 nM, the TGI [46] was greater than 100000 nM and the GI50 [47] was 227 nM. For the same compound, the TGI [47] was 785 nM, the GI50 [48] was 614 nM and the TGI [48] was 22700 nM. For the same compound, the GI50 [49] was 232 nM, the TGI [49] was 683 nM and the GI50 [50] was 371 nM. It also gave a TGI [50] of 19800 nM, a GI50 [51] of 622 nM and a TGI [51] greater than 100000 nM. For the same compound, the GI50 [52] was 171 nM, the TGI [52] was 503 nM and the GI50 [53] was 468 nM. It also gave a TGI [53] greater than 100000 nM, a GI50 [54] of 390 nM and a TGI [54] greater than 100000 nM. For the same compound, the GI50 [55] was 234 nM, the TGI [55] was 4670 nM and the GI50 [56] was 395 nM. It also gave a TGI [56] greater than 100000 nM.
